Where two headings read alike, the source gives them in different places.

Assay [1] has as its target T1, human α2A‐adrenoceptor (Homo sapiens, UniProt P08913).
T1 sequence (P08913 1-465): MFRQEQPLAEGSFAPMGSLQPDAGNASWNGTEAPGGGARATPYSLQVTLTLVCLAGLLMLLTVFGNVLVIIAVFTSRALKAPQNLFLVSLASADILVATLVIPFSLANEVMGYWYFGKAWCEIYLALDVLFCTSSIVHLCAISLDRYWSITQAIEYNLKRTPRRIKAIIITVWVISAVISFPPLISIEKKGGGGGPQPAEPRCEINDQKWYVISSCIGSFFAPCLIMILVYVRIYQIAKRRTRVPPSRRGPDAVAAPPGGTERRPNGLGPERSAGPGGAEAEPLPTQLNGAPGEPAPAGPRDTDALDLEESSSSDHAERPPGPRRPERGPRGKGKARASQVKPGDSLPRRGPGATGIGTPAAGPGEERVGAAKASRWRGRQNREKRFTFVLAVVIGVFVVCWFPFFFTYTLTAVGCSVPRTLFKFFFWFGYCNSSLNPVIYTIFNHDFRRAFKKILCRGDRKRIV

Assay [2] addresses T2, human α2C‐adrenoceptor (Homo sapiens, UniProt P18825).
T2 sequence (P18825 1-462): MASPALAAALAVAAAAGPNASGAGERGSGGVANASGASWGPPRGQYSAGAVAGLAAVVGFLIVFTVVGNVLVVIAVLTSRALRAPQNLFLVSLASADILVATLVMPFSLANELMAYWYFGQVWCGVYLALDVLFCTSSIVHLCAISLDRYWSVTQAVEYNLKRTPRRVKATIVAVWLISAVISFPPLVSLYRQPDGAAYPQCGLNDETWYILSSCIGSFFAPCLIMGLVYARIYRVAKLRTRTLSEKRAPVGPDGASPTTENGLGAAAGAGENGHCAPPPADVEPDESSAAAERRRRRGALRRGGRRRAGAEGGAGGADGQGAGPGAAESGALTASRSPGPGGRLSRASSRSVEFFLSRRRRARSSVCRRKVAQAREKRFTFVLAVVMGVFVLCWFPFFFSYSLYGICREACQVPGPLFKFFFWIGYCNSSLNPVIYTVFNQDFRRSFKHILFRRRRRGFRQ

Assay [3] deals with T1, human α2A‐adrenoceptor. Nature of the assay: 3H‐rauwolscine whole cell binding in CHO‐α2A cells. Also on record: expressed in transfected cells; host or cells: CHO-K1 with CRE-SPAP reporter.
Assay [4] addresses T2, human α2C‐adrenoceptor. Nature of the assay: 3H‐rauwolscine whole cell binding in CHO‐α2C cells. Further details: expressed in transfected cells; host or cells: CHO-K1 with CRE-SPAP reporter.
In assay [5] the target is T1, human α2A‐adrenoceptor. Nature of the assay: ERK1/2‐phosphorylation in CHO‐α2A cells. The assay is classed as cell-based. Also on record: expressed in transfected cells; host or cells: CHO-K1 with CRE-SPAP reporter.
In assay [6] the target is T2, human α2C‐adrenoceptor. As to the kind of experiment: ERK1/2‐phosphorylation in CHO‐α2C cells. The assay is classed as cell-based. Also on record: expressed in transfected cells; host or cells: CHO-K1 with CRE-SPAP reporter.

Broadly, the IC50 is the concentration that gives 50% inhibition. A higher IC50 goes with weaker potency in that assay. In general, Kd refers to the concentration at which binding is half-saturated. As for `CNCC(O)c1ccc(O)cc1` (stereo not drawn) [Synephrine], at human α2A‐adrenoceptor [1], the “% inhibition, CRE‐SPAP (with forskolin)” value came to 75.6 ± 5.6%; the IC50 is 9.55 µM; the “Log EC50 (Gs), CRE‐SPAP (without forskolin)” value (shortened to “Log EC50 … (without forskolin)”) was “No response”. In addition, on human α2C‐adrenoceptor [2], the “% inhibition, CRE‐SPAP (with forskolin)” value is reported as 88.1 ± 8.5%; the midpoint of inhibition, the IC50, lay at 34.7 µM; the “Log EC50 … (without forskolin)” value is “No response”. Besides, on human α2A‐adrenoceptor [3], the dissociation constant (Kd) is 89.1 µM. At human α2C‐adrenoceptor [4], this compound showed a Kd of 120 µM. Moreover, on human α2A‐adrenoceptor [5], the “% 10 μM PDBu, ERK1/2‐phosphorylation” value stood at 114.5 ± 12.3% and the EC50 was 0.776 µM. Also, at human α2C‐adrenoceptor [6], the “% 10 μM PDBu, ERK1/2‐phosphorylation” value is given as 112.8 ± 10.7% and the EC50 is 3.24 µM.
`CN[C@@H](C)[C@H](O)c1ccccc1` [Ephedrine]: on human α2A‐adrenoceptor [1], the “Log EC50 … (without forskolin)” value is “No response” and the “Log IC50 (Gi), CRE‐SPAP (with forskolin)” value is recorded as “No response”. For the same compound, at human α2C‐adrenoceptor [2], the “Log EC50 … (without forskolin)” value is “No response” and the “Log IC50 (Gi), CRE‐SPAP (with forskolin)” value is given as “No response”. At human α2A‐adrenoceptor [3], the affinity, expressed as Kd, was 34.7 µM; the “Selectivity ratio α2A vs α2B (higher affinity for α2A)” value stood at 4.2; the “Selectivity ratio α2A vs α2C (higher affinity for α2A)” value was found to be 1.1. Further, the dissociation constant (Kd) at human α2A‐adrenoceptor [3] (Log KD, CHO‐α2A) is 34.7 µM. Moreover, on human α2C‐adrenoceptor [4], the affinity, expressed as Kd, was 39.8 µM and the “Selectivity ratio α2B vs α2C (higher affinity for α2C)” value is given as 3.6. Moreover, binding at human α2C‐adrenoceptor [4] (Log KD, CHO‐α2C) was put at a Kd of 39.8 µM. On human α2A‐adrenoceptor [5], the “% 10 μM PDBu, ERK1/2‐phosphorylation” value came out at 123.1 ± 17.3% and the EC50 was 16.6 µM. Also, at human α2C‐adrenoceptor [6], the “% 10 μM PDBu, ERK1/2‐phosphorylation” value is recorded as 88.0 ± 12.5% and the EC50 was 33.1 µM.
For `C=CCc1ccccc1OC(C)C1=NCCN1` (stereo not drawn) [Allyphenyline], the “% inhibition, CRE‐SPAP (with forskolin)” value on human α2A‐adrenoceptor [1] was 50.6 ± 6.3%. In addition, at human α2C‐adrenoceptor [2], the “% inhibition, CRE‐SPAP (with forskolin)” value turned out to be 66.8 ± 4.7%; 0.0631 µM corresponded to half-maximal inhibition (IC50); the “Log EC50 … (without forskolin)” value is listed as “No response”. The compound also showed a Kd on human α2C‐adrenoceptor [4] of 0.214 µM. On human α2C‐adrenoceptor [4] (Log KD, CHO‐α2C), this compound gave a dissociation constant (Kd) of 0.214 µM. Further, the “% 10 μM PDBu, ERK1/2‐phosphorylation” value on human α2A‐adrenoceptor [5] was 127.1 ± 13.0%. Moreover, on human α2C‐adrenoceptor [6], the “% 10 μM PDBu, ERK1/2‐phosphorylation” value is listed as 134.5 ± 17.9% and the EC50 is 0.0117 µM.
With `Cc1cccc(C(C)c2cnc[nH]2)c1C` (stereo not drawn) [Medetomidine], the “% 3 μM forskolin, CRE‐SPAP (without forskolin)” value on human α2A‐adrenoceptor [1] is listed as 23.1 ± 4.7%. The “% inhibition, CRE‐SPAP (with forskolin)” value on human α2C‐adrenoceptor [2] was 86.4 ± 2.1%. The “Log EC50 … (without forskolin)” value on human α2C‐adrenoceptor [2] is reported as “No response”. Besides, on human α2C‐adrenoceptor [2] (Log IC50 (Gi), CRE‐SPAP (with forskolin)), the concentration for half-maximal inhibition (IC50) is 0.000513 µM. Further, the dissociation constant Kd at human α2C‐adrenoceptor [4] (read-out: Log KD (converted)) is 0.0324 µM; on human α2C‐adrenoceptor [4] (read-out: Log KD, CHO‐α2C (converted)) it was 0.0324 µM. Moreover, the results for the “% 10 μM PDBu, ERK1/2‐phosphorylation” value on human α2A‐adrenoceptor [5] and on human α2C‐adrenoceptor [6] were 114.1 ± 9.3% and 159.3 ± 16.4%, respectively. Moreover, on human α2C‐adrenoceptor [6] (read-out: Log EC50, ERK1/2‐phosphorylation (converted)), the EC50 is 0.000195 µM.

The record behind these values is PMC9471048, “The signaling and selectivity of α‐adrenoceptor agonists for the human α2A, α2B and α2C‐adrenoceptors and comparison with human α1 and β‐adrenoceptors” (Pharmacology Research & Perspectives, 2022).
